The source of these data is PubChem BioAssay AID743098 (Vanderbilt Specialized Chemistry Center, 2013).

The structures appear in SMILES notation. Active and inactive are the calls of the source. The rule behind the calls is not given here.

The target in the test is Muscarinic acetylcholine receptor M1 (Homo sapiens) (UniProt P11229). In words: ACh-evoked M1 calcium response modulation – cell-based, human M1, selectivity assay for M5 NAM discovery project (AID 743098). As to conditions: CHO-K1 hM1 calcium flux, Fluo-4, ACh EC20; at 30 µM; hits give low values. For orientation: Calcium flux is commonly read through the fluorescence of an indicator in the cells.
Chain of Muscarinic acetylcholine receptor M1 (Homo sapiens) (P11229 whole entry, looked up): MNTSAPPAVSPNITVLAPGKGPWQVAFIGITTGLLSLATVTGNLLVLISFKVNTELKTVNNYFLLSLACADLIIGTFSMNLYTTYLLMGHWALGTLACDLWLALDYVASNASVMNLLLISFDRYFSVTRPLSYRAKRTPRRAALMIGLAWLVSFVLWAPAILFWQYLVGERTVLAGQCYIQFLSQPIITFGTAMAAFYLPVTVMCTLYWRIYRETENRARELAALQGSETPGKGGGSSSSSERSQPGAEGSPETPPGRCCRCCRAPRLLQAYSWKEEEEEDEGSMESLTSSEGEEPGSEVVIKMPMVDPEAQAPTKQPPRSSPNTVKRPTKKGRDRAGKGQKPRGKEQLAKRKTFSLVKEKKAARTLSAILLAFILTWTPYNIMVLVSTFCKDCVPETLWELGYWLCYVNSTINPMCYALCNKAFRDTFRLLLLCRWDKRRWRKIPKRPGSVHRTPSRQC
As for `O=C(c1cc(F)cc(F)c1)N1CCN2C(=O)c3ccccc3C12c1ccc(Cl)cc1` (stereo not given), the response, % of max ACh was 79.9% (inactive).

As for `O=C(c1ccc(F)cc1)N1CCN2C(=O)c3ccccc3C12c1ccccc1` (stereo not given), the response, % of max ACh was 83.6% (inactive).

As to `O=C(c1ccc(F)c(F)c1)N1CCN2C(=O)c3ccccc3C12c1ccccc1` (stereo not given), the response, % of max ACh was 87.2% (inactive).

Consider `O=C(c1ccc(F)c(F)c1)N1CCN2C(=O)c3ccccc3[C@@]12c1ccc(Cl)cc1`, for which the response, % of max ACh was 66.4% (inactive).

With `O=C(c1ccc(F)c(F)c1)N1CCN2C(=O)c3ccccc3C12c1ccc(Cl)cc1` (stereo not given), the response, % of max ACh was 80.5% (inactive).
